The record followed here is patent publication US20230295119A1, “SUBSTITUTED PYRIDINES FOR THE TREATMENT OF INFLAMMATORY DISEASES” (GOSSAMER BIO SERVICES, INC., priority 2020, published 2023).

One assay has as its target human JAK1 (Homo sapiens (Human), UniProt P23458). As to the kind of experiment: JAK1 TR-FRET kinase assay. Format: biochemical. The settings on record: TR-FRET, JAK1 2.5 nM.
The target of the next assay is TYK2 JH2 domain (Homo sapiens (Human), UniProt P29597). As to the kind of experiment: TYK2 JH2 NanoBRET assay. Format: binding. To be noted: Table 20, read-out: TYK2 IC50. In short, it runs like this:
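Tracer displacement measured by BRET ratio (acceptor over donor) in live HEK293T cells transfected with a NanoLuc-tagged TYK2 JH2 construct; cells co-exposed to test compound and 0.5 µM final K10 tracer for 2 h before substrate/extracellular inhibitor addition.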

The target of a further assay is human JAK2 (Homo sapiens (Human), UniProt O60674). Description: JAK2 TR-FRET kinase assay. Format: biochemical. The settings on record: JAK2 0.025 nM. For orientation: TR-FRET usually uses a lanthanide donor and a delayed reading to cut background.
Sequence of human JAK2 (O60674 whole entry): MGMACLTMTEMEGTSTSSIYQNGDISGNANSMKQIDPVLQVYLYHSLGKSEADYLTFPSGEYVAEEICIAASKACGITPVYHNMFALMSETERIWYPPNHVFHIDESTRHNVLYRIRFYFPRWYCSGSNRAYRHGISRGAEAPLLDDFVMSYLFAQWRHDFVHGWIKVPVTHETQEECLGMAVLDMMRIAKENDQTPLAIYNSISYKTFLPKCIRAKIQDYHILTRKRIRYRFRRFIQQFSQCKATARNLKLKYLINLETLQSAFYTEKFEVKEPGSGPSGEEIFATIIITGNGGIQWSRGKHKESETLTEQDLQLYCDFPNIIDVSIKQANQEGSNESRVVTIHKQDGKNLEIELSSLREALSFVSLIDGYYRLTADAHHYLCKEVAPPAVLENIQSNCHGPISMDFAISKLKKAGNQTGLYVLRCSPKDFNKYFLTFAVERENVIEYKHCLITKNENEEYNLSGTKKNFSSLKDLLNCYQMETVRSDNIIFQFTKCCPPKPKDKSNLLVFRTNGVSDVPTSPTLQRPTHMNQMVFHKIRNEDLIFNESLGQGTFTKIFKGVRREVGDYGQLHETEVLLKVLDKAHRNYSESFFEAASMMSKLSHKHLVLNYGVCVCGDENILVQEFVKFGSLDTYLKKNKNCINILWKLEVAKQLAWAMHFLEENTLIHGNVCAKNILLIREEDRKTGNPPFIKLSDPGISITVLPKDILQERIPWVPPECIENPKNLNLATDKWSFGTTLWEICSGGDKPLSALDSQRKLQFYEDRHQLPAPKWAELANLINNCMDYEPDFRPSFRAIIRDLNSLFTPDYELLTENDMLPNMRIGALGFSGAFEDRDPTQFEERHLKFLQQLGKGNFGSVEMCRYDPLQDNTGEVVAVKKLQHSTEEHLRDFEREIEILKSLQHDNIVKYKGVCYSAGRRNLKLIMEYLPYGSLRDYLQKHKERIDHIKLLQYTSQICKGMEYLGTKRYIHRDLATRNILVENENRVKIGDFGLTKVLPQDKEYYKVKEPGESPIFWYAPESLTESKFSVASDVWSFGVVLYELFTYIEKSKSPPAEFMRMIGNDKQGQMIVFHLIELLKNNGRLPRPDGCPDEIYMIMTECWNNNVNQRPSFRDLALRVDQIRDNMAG
For another assay, the target named is human JAK3 (Homo sapiens (Human), UniProt P52333). Description: JAK3 TR-FRET kinase assay. Format: biochemical. To be noted: JAK3 0.0125 nM.
Sequence of human JAK3 (P52333 whole entry): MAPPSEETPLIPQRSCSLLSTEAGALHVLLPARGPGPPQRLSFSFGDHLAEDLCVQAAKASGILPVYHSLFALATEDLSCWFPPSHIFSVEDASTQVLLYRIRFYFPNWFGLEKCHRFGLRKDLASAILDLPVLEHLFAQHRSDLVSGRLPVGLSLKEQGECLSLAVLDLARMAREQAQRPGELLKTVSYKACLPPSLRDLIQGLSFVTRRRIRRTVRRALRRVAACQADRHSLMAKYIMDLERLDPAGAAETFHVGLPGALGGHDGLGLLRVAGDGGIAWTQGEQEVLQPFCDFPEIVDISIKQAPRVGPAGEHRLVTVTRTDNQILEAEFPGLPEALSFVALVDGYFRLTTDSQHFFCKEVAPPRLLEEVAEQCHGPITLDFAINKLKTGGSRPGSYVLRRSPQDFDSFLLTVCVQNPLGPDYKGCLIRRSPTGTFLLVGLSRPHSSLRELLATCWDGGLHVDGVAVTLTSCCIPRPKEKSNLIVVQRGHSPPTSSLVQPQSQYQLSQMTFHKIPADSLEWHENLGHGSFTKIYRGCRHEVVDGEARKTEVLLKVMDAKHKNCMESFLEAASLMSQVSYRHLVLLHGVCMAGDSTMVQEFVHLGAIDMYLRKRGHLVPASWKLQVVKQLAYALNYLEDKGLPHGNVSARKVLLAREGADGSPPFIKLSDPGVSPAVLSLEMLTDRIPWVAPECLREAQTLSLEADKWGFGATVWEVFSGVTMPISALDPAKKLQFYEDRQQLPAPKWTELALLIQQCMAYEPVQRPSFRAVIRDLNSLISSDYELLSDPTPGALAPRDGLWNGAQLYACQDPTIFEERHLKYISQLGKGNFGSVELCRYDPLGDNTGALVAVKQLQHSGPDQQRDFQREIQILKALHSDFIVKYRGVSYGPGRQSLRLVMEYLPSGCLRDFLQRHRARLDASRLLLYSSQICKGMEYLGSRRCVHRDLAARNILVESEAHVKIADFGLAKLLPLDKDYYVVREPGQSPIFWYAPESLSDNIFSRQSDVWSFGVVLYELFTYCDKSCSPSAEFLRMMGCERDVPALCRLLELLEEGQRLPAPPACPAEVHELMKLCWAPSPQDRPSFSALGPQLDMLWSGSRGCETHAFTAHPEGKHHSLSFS

Structures are written as SMILES. pIC50: −log10 of the molar value.

Sequence of TYK2 JH2 domain (P29597 589-875): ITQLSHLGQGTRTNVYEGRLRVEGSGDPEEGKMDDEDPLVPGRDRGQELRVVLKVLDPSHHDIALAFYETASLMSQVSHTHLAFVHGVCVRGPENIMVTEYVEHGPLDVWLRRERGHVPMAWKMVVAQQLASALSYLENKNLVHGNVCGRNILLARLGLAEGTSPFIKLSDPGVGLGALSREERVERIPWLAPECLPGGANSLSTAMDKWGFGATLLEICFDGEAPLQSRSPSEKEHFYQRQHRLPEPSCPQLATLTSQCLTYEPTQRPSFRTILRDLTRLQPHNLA
Sequence of human JAK1 (P23458 whole entry, the tested form may be a part): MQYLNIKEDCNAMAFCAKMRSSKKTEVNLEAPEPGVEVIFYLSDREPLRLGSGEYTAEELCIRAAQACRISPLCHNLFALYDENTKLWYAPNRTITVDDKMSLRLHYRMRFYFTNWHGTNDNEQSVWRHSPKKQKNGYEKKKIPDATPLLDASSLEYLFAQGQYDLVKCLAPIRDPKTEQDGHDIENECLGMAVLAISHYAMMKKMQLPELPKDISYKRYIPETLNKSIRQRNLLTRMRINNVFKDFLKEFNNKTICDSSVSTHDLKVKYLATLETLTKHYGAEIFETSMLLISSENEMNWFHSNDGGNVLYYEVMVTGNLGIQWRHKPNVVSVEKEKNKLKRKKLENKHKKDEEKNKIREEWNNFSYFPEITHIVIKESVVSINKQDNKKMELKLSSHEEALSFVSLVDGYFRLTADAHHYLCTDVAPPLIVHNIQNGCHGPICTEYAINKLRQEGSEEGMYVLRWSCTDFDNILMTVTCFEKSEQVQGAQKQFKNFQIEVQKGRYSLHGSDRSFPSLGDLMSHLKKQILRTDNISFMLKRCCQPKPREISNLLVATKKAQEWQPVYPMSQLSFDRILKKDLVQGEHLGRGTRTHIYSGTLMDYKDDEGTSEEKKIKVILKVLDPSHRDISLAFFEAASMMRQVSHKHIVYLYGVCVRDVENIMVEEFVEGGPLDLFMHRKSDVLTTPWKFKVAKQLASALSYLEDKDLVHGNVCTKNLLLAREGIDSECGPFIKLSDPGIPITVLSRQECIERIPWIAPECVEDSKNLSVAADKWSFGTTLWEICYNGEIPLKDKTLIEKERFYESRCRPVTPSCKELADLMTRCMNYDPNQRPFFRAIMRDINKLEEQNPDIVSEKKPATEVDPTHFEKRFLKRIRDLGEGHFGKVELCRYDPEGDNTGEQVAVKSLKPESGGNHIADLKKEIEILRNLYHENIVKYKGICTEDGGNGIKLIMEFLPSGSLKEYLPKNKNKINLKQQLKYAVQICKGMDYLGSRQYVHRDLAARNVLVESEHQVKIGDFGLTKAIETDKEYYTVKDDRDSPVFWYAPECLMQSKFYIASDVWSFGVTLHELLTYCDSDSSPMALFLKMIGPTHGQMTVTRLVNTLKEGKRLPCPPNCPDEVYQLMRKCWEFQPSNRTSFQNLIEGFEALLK

Broadly, the pIC50 is −log10 of the IC50, conventionally taken in molar units. For the compound `CCC(=O)c1cnc(Nc2cnc(CCN(C)C)cn2)cc1Nc1cccc(-c2ncn(C)n2)c1OC` [Compound 11I], the pIC50 was ≤ 6.30 at human JAK1, 7.30 to 8.30 at TYK2 JH2 domain, ≤ 6.30 against human JAK2 and ≤ 6.30 against human JAK3.
As for `CCC(=O)c1cnc(Nc2cnc(CCN3CCCC3)cn2)cc1Nc1cccc(-c2ncn(C)n2)c1OC` [Compound 11J], the pIC50 against human JAK1 was ≤ 6.30; at TYK2 JH2 domain it was 7.30 to 8.30; against human JAK2, ≤ 6.30; against human JAK3, ≤ 6.30.
For `CCC(=O)c1cnc(Nc2ccc(S(C)(=O)=O)cn2)cc1Nc1cccc(-c2ncn(C)n2)c1OC` [Compound 12A, 1-(4-((2-methoxy-3-(1-methyl-1H-1,2,4-triazol-3-yl)phenyl)amino)-6-((5-(methylsulfonyl)pyridin-2-yl)amino)pyridin-3-yl)propan-1-one], the pIC50 on human JAK1 was ≤ 6.30; at TYK2 JH2 domain, > 8.30; on human JAK2, ≤ 6.30; against human JAK3 it was ≤ 6.30.
Take `CCC(=O)c1cnc(Nc2ccc(CS(C)(=O)=O)cn2)cc1Nc1cccc(-c2ncn(C)n2)c1OC` [Compound 13A, 1-(4-((2-methoxy-3-(1-methyl-1H-1,2,4-triazol-3-yl)phenyl)amino)-6-((5-((methylsulfonyl)methyl)pyridin-2-yl)amino)pyridin-3-yl)propan-1-one]: the pIC50 was ≤ 6.30 against human JAK1, > 8.30 on TYK2 JH2 domain, 6.30 to 7.30 against human JAK2 and 6.30 to 7.30 against human JAK3.
As for `CCC(=O)c1cnc(Nc2ncc(CS(C)(=O)=O)cc2F)cc1Nc1cccc(-c2ncn(C)n2)c1OC` [Compound 13AA], the pIC50 was ≤ 6.30 on human JAK1, 7.30 to 8.30 at TYK2 JH2 domain, ≤ 6.30 on human JAK2 and ≤ 6.30 against human JAK3.
Turning to `CCC(=O)c1cnc(Nc2ccc(S(N)(=O)=O)cn2)cc1Nc1cccc(-c2ncn(C)n2)c1OC` [Compound 13B], the pIC50 is ≤ 6.30 at human JAK1, > 8.30 at TYK2 JH2 domain, ≤ 6.30 against human JAK2 and ≤ 6.30 against human JAK3.
With `CCC(=O)c1cnc(Nc2ccc(S(=O)(=O)NC)cn2)cc1Nc1cccc(-c2ncn(C)n2)c1OC` [Compound 13C], the negative logarithm of the IC50 (pIC50) at human JAK1 is ≤ 6.30; at TYK2 JH2 domain it was 7.30 to 8.30; on human JAK2 it was ≤ 6.30; on human JAK3, ≤ 6.30.
On to `CCC(=O)c1cnc(Nc2ccc(S(=O)(=O)N3CCOCC3)cn2)cc1Nc1cccc(-c2ncn(C)n2)c1OC` [Compound 13E], for which the pIC50 against human JAK1 is ≤ 6.30; on TYK2 JH2 domain, > 8.30; at human JAK2 it was ≤ 6.30; against human JAK3 it was ≤ 6.30.
Turning to `CCC(=O)c1cnc(Nc2ccc(CS(C)(=N)=O)cn2)cc1Nc1cccc(-c2ncn(C)n2)c1OC` (stereo not drawn) [Compound 13F], the pIC50 against human JAK1 is ≤ 6.30; at TYK2 JH2 domain it was 7.30 to 8.30; at human JAK2 it was ≤ 6.30; at human JAK3 it was ≤ 6.30.
For the compound `CCC(=O)c1cnc(Nc2ccc(S(=O)(=O)CC)cn2)cc1Nc1cccc(-c2ncn(C)n2)c1OC` [Compound 13G], the negative-log IC50 (pIC50) against human JAK1 is ≤ 6.30; on TYK2 JH2 domain it was > 8.30; against human JAK2, ≤ 6.30; at human JAK3, ≤ 6.30.
Turning to `CCC(=O)c1cnc(Nc2ccc(S(=O)(=O)C3CC3)cn2)cc1Nc1cccc(-c2ncn(C)n2)c1OC` [Compound 13H], the pIC50 against human JAK1 is ≤ 6.30; at TYK2 JH2 domain, > 8.30; against human JAK2, 6.30 to 7.30; against human JAK3, 6.30 to 7.30.
Consider `CCC(=O)c1cnc(Nc2ccc(S(C)(=O)=O)cn2)cc1Nc1nccc(-c2ncn(C)n2)c1OC` [Compound 13I], for which the negative logarithm of the IC50 (pIC50) on human JAK1 was ≤ 6.30; at TYK2 JH2 domain, > 8.30; against human JAK2, ≤ 6.30; against human JAK3 it was ≤ 6.30.
In the case of `CCC(=O)c1cnc(Nc2ccc(S(=O)(=O)CC)cn2)cc1Nc1nccc(-c2ncn(C)n2)c1OC` [Compound 13J], the pIC50 at human JAK1 is ≤ 6.30; on TYK2 JH2 domain, > 8.30; against human JAK2, ≤ 6.30; against human JAK3, ≤ 6.30.
With `CCC(=O)c1cnc(Nc2ccc(S(=O)(=O)C3CC3)cn2)cc1Nc1nccc(-c2ncn(C)n2)c1OC` [Compound 13K], the negative logarithm of the IC50 (pIC50) on human JAK1 was ≤ 6.30; on TYK2 JH2 domain, 7.30 to 8.30; against human JAK2 it was 6.30 to 7.30; against human JAK3, 6.30 to 7.30.
Take `CCC(=O)c1cnc(Nc2ccc(S(C)(=N)=O)cn2)cc1Nc1nccc(-c2ncn(C)n2)c1OC` (stereo not drawn) [Compound 13L]: the pIC50 on human JAK1, on TYK2 JH2 domain, against human JAK2 and at human JAK3 was ≤ 6.30 throughout.
For `CCC(=O)c1cnc(Nc2ccc(CS(C)(=O)=O)cn2)cc1Nc1nccc(-c2ncn(C)n2)c1OC` [Compound 13M], the negative logarithm of the IC50 (pIC50) at human JAK1 was ≤ 6.30; at TYK2 JH2 domain, > 8.30; on human JAK2, 6.30 to 7.30; against human JAK3 it was ≤ 6.30.
Regarding `CCC(=O)c1cnc(Nc2cccc(CS(C)(=O)=O)n2)cc1Nc1cccc(-c2ncn(C)n2)c1OC` [Compound 13N], the pIC50 was ≤ 6.30 on human JAK1, 7.30 to 8.30 at TYK2 JH2 domain, 6.30 to 7.30 at human JAK2 and 6.30 to 7.30 against human JAK3.
On to `CCC(=O)c1cnc(Nc2ccc(S(C)(=O)=O)cn2)cc1Nc1cccc(CO)c1OC` [Compound 13P], for which the pIC50 was ≤ 6.30 on human JAK1, 7.30 to 8.30 at TYK2 JH2 domain, ≤ 6.30 on human JAK2 and 6.30 to 7.30 at human JAK3.
Regarding `CCC(=O)c1cnc(Nc2ccc(S(C)(=O)=O)cn2)cc1Nc1cccc(C(C)O)c1OC` (stereo not drawn) [Compound 13Q], the negative logarithm of the IC50 (pIC50) against human JAK1 was ≤ 6.30; on TYK2 JH2 domain, 7.30 to 8.30; against human JAK2 it was ≤ 6.30; on human JAK3, ≤ 6.30.
Take `CCC(=O)c1cnc(Nc2ccc(S(C)(=O)=O)cn2)cc1Nc1cccc(COC)c1OC` [Compound 13R]: the pIC50 against human JAK1 was ≤ 6.30; at TYK2 JH2 domain, 7.30 to 8.30; against human JAK2 it was ≤ 6.30; at human JAK3, ≤ 6.30.
As for `CCC(=O)c1cnc(Nc2ccc(CS(C)(=O)=O)nn2)cc1Nc1cccc(-c2ncn(C)n2)c1OC` [Compound 13T], the negative-log IC50 (pIC50) against human JAK1 is ≤ 6.30; on TYK2 JH2 domain it was 7.30 to 8.30; against human JAK2, ≤ 6.30; against human JAK3 it was ≤ 6.30.
Regarding `CCC(=O)c1cnc(Nc2cnc(CS(C)(=O)=O)cn2)cc1Nc1cccc(-c2ncn(C)n2)c1OC` [Compound 13U], the negative-log IC50 (pIC50) was ≤ 6.30 at human JAK1, 7.30 to 8.30 at TYK2 JH2 domain, ≤ 6.30 on human JAK2 and ≤ 6.30 against human JAK3.
Take `CCC(=O)c1cnc(Nc2ccc(C3(S(C)(=O)=O)CC3)nn2)cc1Nc1cccc(-c2ncn(C)n2)c1OC` [Compound 13V]: the negative logarithm of the IC50 (pIC50) against human JAK1 is ≤ 6.30; at TYK2 JH2 domain, > 8.30; at human JAK2 it was ≤ 6.30; on human JAK3 it was ≤ 6.30.
For the compound `CCC(=O)c1cnc(Nc2ccc(S(C)(=O)=O)cn2)cc1Nc1ccc(C(=O)N2CCCC2)cc1OC` [Compound 13W], the pIC50 was ≤ 6.30 at human JAK1, 6.30 to 7.30 at TYK2 JH2 domain, 6.30 to 7.30 against human JAK2 and 6.30 to 7.30 against human JAK3.
For the compound `CCC(=O)c1cnc(Nc2ccc(S(C)(=O)=O)cn2)cc1Nc1ccc(CO)cc1OC` [Compound 13X], the pIC50 is ≤ 6.30 against human JAK1, 6.30 to 7.30 at TYK2 JH2 domain, 6.30 to 7.30 at human JAK2 and 6.30 to 7.30 against human JAK3.
`CCC(=O)c1cnc(Nc2ccc(S(C)(=O)=O)cn2)cc1Nc1cccc(C(C)(C)O)c1OC` [Compound 13Y]: the negative-log IC50 (pIC50) is ≤ 6.30 against human JAK1, 6.30 to 7.30 at TYK2 JH2 domain, ≤ 6.30 at human JAK2 and ≤ 6.30 on human JAK3.
Turning to `CCC(=O)c1cnc(Nc2ncc(S(C)(=O)=O)cc2F)cc1Nc1cccc(-c2ncn(C)n2)c1OC` [Compound 13Z], the pIC50 is ≤ 6.30 at human JAK1, 6.30 to 7.30 at TYK2 JH2 domain, ≤ 6.30 against human JAK2 and ≤ 6.30 against human JAK3.
Regarding `CCC(=O)c1cnc(Nc2ccc(S(C)(=N)=O)cn2)cc1Nc1cccc(-c2ncn(C)n2)c1OC` (stereo not drawn) [Compound 14A, imino(6-((4-((2-methoxy-3-(1-methyl-1H-1,2,4-triazol-3-yl)phenyl)amino)-5-propionylpyridin-2-yl)amino)pyridin-3-yl)(methyl)-16-sulfanone], the pIC50 at human JAK1 is ≤ 6.30; at TYK2 JH2 domain it was > 8.30; against human JAK2 it was ≤ 6.30; on human JAK3 it was ≤ 6.30.
Take `CCC(=O)c1cnc(Nc2ccc(-n3ccccc3=O)cn2)cc1Nc1cccc(-c2ncn(C)n2)c1OC` [Compound 15A, 6′-((4-((2-methoxy-3-(1-methyl-1H-1,2,4-triazol-3-yl)phenyl)amino)-5-propionylpyridin-2-yl)amino)-2H-[1,3′-bipyridin]-2-one]: the pIC50 was ≤ 6.30 at human JAK1, > 8.30 at TYK2 JH2 domain, ≤ 6.30 on human JAK2 and ≤ 6.30 against human JAK3.
`CCC(=O)c1cnc(Nc2ncc(-n3ccccc3=O)cc2F)cc1Nc1cccc(-c2ncn(C)n2)c1OC` [Compound 15AA]: the pIC50 was ≤ 6.30 at human JAK1, 6.30 to 7.30 on TYK2 JH2 domain, ≤ 6.30 on human JAK2 and ≤ 6.30 at human JAK3.
Regarding `CCC(=O)c1cnc(Nc2ccc3c(c2)COB3O)cc1Nc1cccc(-c2ncn(C)n2)c1OC` [Compound 15BB], the pIC50 at human JAK1 was ≤ 6.30; on TYK2 JH2 domain, 7.30 to 8.30; against human JAK2, ≤ 6.30; against human JAK3, ≤ 6.30.
Take `CCC(=O)c1cnc(Nc2ccc(-c3cn(C)cn3)cn2)cc1Nc1cccc(-c2ncn(C)n2)c1OC` [Compound 15B]: the negative logarithm of the IC50 (pIC50) is ≤ 6.30 against human JAK1, > 8.30 at TYK2 JH2 domain, ≤ 6.30 against human JAK2 and 6.30 to 7.30 against human JAK3.
For `CCC(=O)c1cnc(Nc2cc3c(cn2)B(O)OC3)cc1Nc1cccc(-c2ncn(C)n2)c1OC` [Compound 15CC], the negative logarithm of the IC50 (pIC50) is ≤ 6.30 at human JAK1, > 8.30 at TYK2 JH2 domain, ≤ 6.30 on human JAK2 and ≤ 6.30 against human JAK3.
